The experiment concerns Jatropha curcas embryogenic calli. Nature of the experiment: Embryogenic liquid suspension culture. In kind it is cell-based. The conditions noted are these: liquid medium. As for the experimental part: FIGS. 5A-5D show embryogenic liquid suspension culture. About 50 mg embryogenic calli produced in solid DGA medium were inoculated in 20 ml modified DGA liquid media. Embryos larger than 2 mm were removed before inoculation. Subculture was done every two weeks. Photos were taken after 2 subcultures. FIG. 5A: 20 g/l sucrose, 1 g/l glutamine, 0.5 g/l asparagine, no 2,4-D. FIG. 5B: 20 g/l sucrose, 1 g/l glutamine, 0.5 g/l asparagine, 0.2 g/1 2,4-D. FIG. 5C: 30 g/l sucrose, 1 g/l glutamine, 0.5 g/l asparagine, 0.2 g/1 2,4-D. FIG. 5D: 20 g/l sucrose, 1 g/l glutamine, 0.5 g/l asparagine, 1 g/1 2,4-D. Arrow indicates the non-embryogenic ball-shaped calli. Scale bar represents 1 cm.
Liquid cultures were performed in 65 mm plastic cylinder containers or 250 ml glass conical flasks that were placed in shakers set at 80 rpm, 28° C. constant temperature and 16-8 hours day-light cycles.
Effects 2,4-D and carbon source on establishment of somatic embryogenic liquid suspension culture was investigated. […] At sucrose level ranging from 10-30 g/l, continued culture lead to maturation of the somatic embryo with no new initiation of secondary embryos (FIG. 5A). The somatic embryos thus produced share good synchrony and are excellent materials for re-induction of TIISEs (Refer to Example 13). […] The suspension cultures were stable for months if large embryos were removed. Further, sucrose concentration needs to be reduced below about 20 g/l (compare FIGS. 5B and 5C).

As for `O=C(O)COc1ccc(Cl)cc1Cl` [2,4-D, 2,4-dichlorophenoxyacetic acid], for the setting “2,4-D 0.1-0.5 g/l”, the “maturation of somatic embryos” value was “significantly inhibited maturation of somatic embryos”. In addition, the “calli multiplication and embryogenicity” value (2,4-D higher than 0.5 g/l) was “calli multiplication and embryogenicity was poor”.

The values are drawn from US8691576B2, “Regeneration and mass propagation of Jatropha curcas through somatic embryogenesis” (Joil (S) Pte Ltd., priority 2008, dated 2014).
